Data reported in the supplement of paper PMC8671470.

Legend:
Conditions in all cases: 72 h
[1] = tested on: BV-173
Method in brief: (§1)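 Fifteen myeloid leukaemia lines in RPMI 1640 were treated for 72 h at 37 °C and 5% CO2 with five tenfold doses from 1 to 10,000 nM, in duplicate. ATP luminescence was normalised to vehicle and to a positive control at 10 µM, then fitted with a four-parameter log-logistic model. The IC50 came from these fits.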

[2] = tested on: HEL
Method in brief: as §1

[3] = tested on: HL-60
Method in brief: as §1

[4] = tested on: K-562
Method in brief: as §1

[5] = tested on: KCL-22
Method in brief: as §1

[6] = tested on: KG-1
Method in brief: as §1

[7] = tested on: KU-812
Method in brief: as §1

[8] = tested on: LAMA-84
Method in brief: as §1

[9] = tested on: ML-2
Method in brief: as §1

[10] = tested on: MOLM-13
Method in brief: as §1

[11] = tested on: MV4-11
Method in brief: as §1

[12] = tested on: Mono-Mac-6
Method in brief: as §1

[13] = tested on: NOMO-1
Method in brief: as §1

[14] = tested on: SHI-1
Method in brief: as §1

[15] = tested on: THP-1
Method in brief: as §1

[16] = tested on: BV-173; experiment: cell viability (% survival relative to DMSO control, bortezomib = 0%); higher = less cytotoxic
Method in brief: (§2)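 Fifteen myeloid leukaemia cell lines (10 AML, 5 CML) were seeded at a density titrated to the linear growth range into 384-well plates pre-printed with compounds at 1, 10, 100, 1000 or 10000 nM in duplicate. Plates were incubated for 72 h at 37 °C with 5% CO2. Viability was then read by CellTiter-Glo luminescence. Each value is percent survival averaged over the duplicates, with vehicle set to 100% and a 10 µM positive control to 0%.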

[17] = tested on: HEL; experiment: as above
Method in brief: as §2

[18] = tested on: HL-60; experiment: as above
Method in brief: as §2

[19] = tested on: K-562; experiment: as above
Method in brief: as §2

[20] = tested on: KCL-22; experiment: as above
Method in brief: as §2

[21] = tested on: KG-1; experiment: as above
Method in brief: as §2

[22] = tested on: KU-812; experiment: as above
Method in brief: as §2

[23] = tested on: LAMA-84; experiment: as above
Method in brief: as §2

[24] = tested on: ML-2; experiment: as above
Method in brief: as §2

[25] = tested on: MOLM-13; experiment: as above
Method in brief: as §2

[26] = tested on: MV4-11; experiment: as above
Method in brief: as §2

[27] = tested on: Mono-Mac-6; experiment: as above
Method in brief: as §2

[28] = tested on: NOMO-1; experiment: as above
Method in brief: as §2

[29] = tested on: SHI-1; experiment: as above
Method in brief: as §2

[30] = tested on: THP-1; experiment: as above
Method in brief: as §2

CN(C)C(=O)n1nnnc1Cc1ccc(-c2ccccc2)cc1
Conditions	IC50 (cell viability) [µM]
[1]	0.422
[2]	2.41
[3]	3.63
[4]	1.88
[5]	2.92
[6]	1.17
[7]	1.89
[8]	2.45
[9]	1.5
[10]	3.38
[11]	1.77
[12]	2.48
[13]	4.43
[14]	3.74
[15]	1.74

cell viability [%]
Conditions	1 nM	10 nM	100 nM	1000 nM	10000 nM
[16]	96.6	110	98.1	13.7	0.269
[17]	101	112	102	87.1	1.09
[18]	114	136	106	108	2.17
[19]	100	111	112	78.1	4.59
[20]	94.6	109	101	95	0.732
[21]	93.7	108	104	60.6	8.52
[22]	101	101	96.5	77.9	3.07
[23]	83	109	103	85.5	3.4
[24]	101	112	114	69.2	3.07
[25]	99	122	115	104	0.746
[26]	98.3	114	89.2	76.4	0.0147
[27]	95.9	102	102	88.6	0.0787
[28]	105	99.4	96.7	86.9	26.5
[29]	97.5	116	125	112	1.4
[30]	103	112	102	67.6	35

Cc1[nH]n(-c2ccccc2)c(=O)c1C1(C(F)(F)F)C(=O)N(c2ccccc2)C2=C1C(=O)CC(C)(C)C2 (stereo not given)
Conditions	IC50 (cell viability) [µM]
[1]	> 10
[2]	> 10
[3]	> 10
[4]	> 10
[5]	> 10
[6]	> 10
[7]	> 10
[8]	> 10
[9]	> 10
[10]	> 10
[11]	> 10
[12]	> 10
[13]	> 10
[14]	> 10
[15]	> 10

cell viability [%]
Conditions	1 nM	10 nM	100 nM	1000 nM	10000 nM
[16]	103	89.2	128	99.8	111
[17]	94.3	104	108	90.8	90.9
[18]	121	120	104	77.6	103
[19]	89.6	100	103	108	97.3
[20]	84.5	140	99.2	108	103
[21]	96.7	97.6	97.8	93.7	107
[22]	104	94.3	97.7	111	95.3
[23]	106	92.6	99.9	110	92.4
[24]	98.6	87.9	115	101	99.8
[25]	91.4	114	98.5	100	99.8
[26]	105	104	99.4	97.1	96.4
[27]	115	98.1	105	97.1	101
[28]	104	94.6	108	101	101
[29]	101	109	109	108	104
[30]	101	97.5	93.8	93.2	92
